Experimental data reported in patent US6737383B1, “Herbicidal oxadiazolidines” (priority 1999, dated 2004).

How the values were obtained:
[1] = tested on: morningglory; assay: Test B pre/postemergence morningglory; format: in vivo, Ipomoea hederacea
Procedure, shortened: (§1)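 Test chemicals in a non-phytotoxic solvent mixture with surfactant were sprayed preemergence onto planted seeds and postemergence onto plants 2 to 18 cm tall (1- to 4-leaf stage). After twelve to sixteen days in a greenhouse, injury was visually rated against untreated controls from 0 (no effect) to 10 (complete control).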

[2] = tested on: wild oat; assay: Test B pre/postemergence wild oat; format: in vivo, Avena fatua
Procedure, shortened: as §1

[3] = tested on: sugar beet; assay: Test B pre/postemergence sugar beet; format: in vivo, Beta vulgaris
Procedure, shortened: as §1

[4] = tested on: smallflower flatsedge; assay: Test B flood test smallflower flatsedge; format: in vivo, Cyperus difformis
Procedure, shortened: (§2)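 Read-out is a visual response score from 0 (no effect) to 10 (complete control), assigned by comparison with untreated controls. Treatment was applied at the 2-leaf stage, and plants stayed in the greenhouse for twelve to sixteen days before scoring.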

[5] = tested on: blackgrass; assay: Test B pre/postemergence blackgrass; format: in vivo, Alopecurus myosuroides
Procedure, shortened: as §1

[6] = tested on: velvetleaf; assay: Test B pre/postemergence velvetleaf; format: in vivo, Abutilon theophrasti
Procedure, shortened: as §1

[7] = tested on: pigweed; assay: Test B pre/postemergence pigweed; format: in vivo, Amaranthus retroflexus
Procedure, shortened: as §1

[8] = tested on: corn; assay: Test B pre/postemergence corn; format: in vivo, Zea mays
Procedure, shortened: as §1

[9] = tested on: crabgrass; assay: Test B pre/postemergence crabgrass; format: in vivo, Digitaria sanguinalis
Procedure, shortened: as §1

[10] = tested on: giant foxtail; assay: Test B pre/postemergence giant foxtail; format: in vivo, Setaria faberii
Procedure, shortened: as §1

[11] = tested on: rape; assay: Test B pre/postemergence rape; format: in vivo, Brassica napus
Procedure, shortened: as §1

[12] = tested on: purple nutsedge; assay: Test B pre/postemergence purple nutsedge; format: in vivo, Cyperus rotundus
Procedure, shortened: as §1

[13] = tested on: soybean; assay: Test B pre/postemergence soybean; format: in vivo, Glycine max
Procedure, shortened: as §1

[14] = tested on: bamyardgrass; assay: Test B flood test barnyardgrass; format: in vivo, Echinochloa crus-galli
Procedure, shortened: as §2

[15] = tested on: cocklebur; assay: Test B pre/postemergence cocklebur; format: in vivo, Xanthium strumarium
Procedure, shortened: as §1

[16] = tested on: surinam grass; assay: Test B pre/postemergence surinam grass; format: in vivo, Brachiaria decumbens
Procedure, shortened: as §1

[17] = Postemergence, Rate 62 g/ha, scale 0 to 10, 0 is no effect, 10 is complete control
[18] = Postemergence, Rate 250 g/ha, scale 0 to 10, 0 no effect, 10 complete control
[19] = Preemergence, Rate 62 g/ha, scale 0 to 10, 0 is no effect, 10 is complete control
[20] = Preemergence, Rate 125 g/ha, scale 0 to 10 (0 no effect, 10 complete control)
[21] = Preemergence, Rate 500 g/ha, scale 0 (no effect) to 10 (complete control)
[22] = Rate 125 g/ha, Postemergence, scale 0 to 10, 0 no effect, 10 complete control
[23] = Rate 500 g/ha, Postemergence, 0 to 10 scale (0 no effect, 10 complete control)
[24] = Preemergence, Rate 250 g/ha, scale of 0 to 10 where 0 is no effect and 10 is complete control
[25] = Rate 125 g/ha, Postemergence section (flood test species), scale 0 to 10, 0 no effect, 10 complete control
[26] = flood test, listed under Postemergence, Rate 250 g/ha, scale 0 to 10, 0 no effect, 10 complete control

CC(C)N(C(=O)n1oc(=O)n(-c2ccccc2C(F)(F)F)c1=O)c1ccc(F)cc1 [Compound 15]
Morningglory plant response rating [1, 17]: 2
Morningglory plant response rating [1, 18]: 6
Plant response rating, Morningglory [1, 19]: 0
Plant response rating, Morningglory [1, 20]: 0
Morningglory plant response rating [1, 21]: 0
Morningglory plant response rating [1, 22]: 2
Morningglory plant response rating [1, 23]: 7
Wild oats plant response rating [2, 17]: 0
Wild oats plant response rating [2, 18]: 0
Plant response rating, Wild oats [2, 20]: 0
Plant response rating, Wild oats [2, 24]: 0
Wild oats plant response rating [2, 21]: 0
Wild oats plant response rating [2, 22]: 0
Sugarbeets plant response rating [3, 17]: 0
Sugarbeets plant response rating [3, 18]: 0
Plant response rating, Sugarbeets [3, 19]: 0
Plant response rating, Sugarbeets [3, 20]: 0
Plant response rating, Sugarbeets [3, 24]: 3
Sugarbeets plant response rating [3, 21]: 6
Sugarbeets plant response rating [3, 22]: 0
S. Flatsedge plant response rating [4, 17]: 0
S. Flatsedge plant response rating [4, 25]: 0
S. Flatsedge plant response rating [4, 26]: 0
Blackgrass plant response rating [5, 17]: 0
Blackgrass plant response rating [5, 18]: 0
Plant response rating, Blackgrass [5, 19]: 0
Plant response rating, Blackgrass [5, 20]: 0
Plant response rating, Blackgrass [5, 24]: 0
Blackgrass plant response rating [5, 21]: 0
Blackgrass plant response rating [5, 22]: 0
Blackgrass plant response rating [5, 23]: 3
Velvetleaf plant response rating [6, 17]: 0
Velvetleaf plant response rating [6, 18]: 0
Plant response rating, Velvetleaf [6, 19]: 0
Plant response rating, Velvetleaf [6, 20]: 0
Velvetleaf plant response rating [6, 21]: 0
Velvetleaf plant response rating [6, 22]: 0
Redroot pigweed plant response rating [7, 17]: 0
Redroot pigweed plant response rating [7, 18]: 2
Plant response rating, Redroot pigweed [7, 19]: 0
Plant response rating, Redroot pigweed [7, 20]: 0
Plant response rating, Redroot pigweed [7, 24]: 0
Redroot pigweed plant response rating [7, 21]: 8
Redroot pigweed plant response rating [7, 22]: 0
Redroot pigweed plant response rating [7, 23]: 6
Corn plant response rating [8, 17]: 0
Corn plant response rating [8, 18]: 0
Plant response rating, Corn [8, 19]: 0
Plant response rating, Corn [8, 20]: 0
Corn plant response rating [8, 21]: 0
Corn plant response rating [8, 22]: 0
Corn plant response rating [8, 23]: 0
Crabgrass plant response rating [9, 17]: 0
Crabgrass plant response rating [9, 18]: 3
Plant response rating, Crabgrass [9, 19]: 0
Plant response rating, Crabgrass [9, 20]: 2
Crabgrass plant response rating [9, 21]: 10
Crabgrass plant response rating [9, 22]: 1
Crabgrass plant response rating [9, 23]: 8
Giant foxtail plant response rating [10, 17]: 0
Giant foxtail plant response rating [10, 18]: 0
Plant response rating, Giant foxtail [10, 19]: 6
Plant response rating, Giant foxtail [10, 20]: 8
Giant foxtail plant response rating [10, 21]: 10
Giant foxtail plant response rating [10, 22]: 0
Giant foxtail plant response rating [10, 23]: 0
Rape plant response rating [11, 17]: 0
Rape plant response rating [11, 18]: 0
Plant response rating, Rape [11, 19]: 0
Plant response rating, Rape [11, 20]: 0
Plant response rating, Rape [11, 24]: 0
Rape plant response rating [11, 21]: 0
Rape plant response rating [11, 22]: 0
Rape plant response rating [11, 23]: 0
Nutsedge plant response rating [12, 17]: 0
Nutsedge plant response rating [12, 18]: 0
Plant response rating, Nutsedge [12, 19]: 0
Plant response rating, Nutsedge [12, 20]: 0
Nutsedge plant response rating [12, 21]: 0
Nutsedge plant response rating [12, 22]: 0
Nutsedge plant response rating [12, 23]: 0
Soybean plant response rating [13, 17]: 2
Soybean plant response rating [13, 18]: 2
Plant response rating, Soybean [13, 19]: 0
Plant response rating, Soybean [13, 20]: 0
Soybean plant response rating [13, 21]: 0
Soybean plant response rating [13, 22]: 2
Barnyardgrass plant response rating [14, 17]: 0
Barnyardgrass plant response rating [14, 25]: 0
Barnyardgrass plant response rating ([14]; Rate 500 g/ha, Postemergence section of Table B, 0 to 10 scale (0 no effect, 10 complete control)): 0
Barnyardgrass plant response rating [14, 26]: 0
Cocklebur plant response rating [15, 17]: 0
Cocklebur plant response rating [15, 18]: 5
Plant response rating, Cocklebur [15, 19]: 0
Plant response rating, Cocklebur [15, 20]: 0
Cocklebur plant response rating [15, 21]: 0
Cocklebur plant response rating [15, 22]: 0
Cocklebur plant response rating [15, 23]: 8
B. signalgrass plant response rating [16, 17]: 0
B. signalgrass plant response rating [16, 18]: 0
Plant response rating, B. signalgrass [16, 19]: 0
Plant response rating, B. signalgrass [16, 20]: 0
Plant response rating, B. signalgrass [16, 24]: 0
B. signalgrass plant response rating [16, 21]: 0
B. signalgrass plant response rating [16, 22]: 0
B. signalgrass plant response rating [16, 23]: 0
